Columns and labels:
[1] = tested on: HUVEC-ST cells; assay: Alkaline comet assay in HUVEC-ST cells; type: cell-based, human; settings: doxorubicin IC50 + flavonoid IC50 preincubation, longest postincubation time (48 h)
Protocol: (§1) Unless otherwise indicated, in experiments, cells were seeded at an appropriate density for the specific assay into 96-well plates or Petri dishes. They were then incubated in standard culture conditions, which included a temperature of 37 °C, 100% relative humidity, and a 5% CO2 incubator. […] After treatment, the cells were washed with PBS and, depending on the experiment, immediately used for measurement or cultured in a fresh medium for 24 or 48 h. Control cells were treated with a corresponding volume of PBS. Additional controls for solvents were also performed.
The comet assay, also known as the single-cell gel electrophoresis assay, is a highly sensitive and versatile method for measuring single- and double-stranded DNA breaks. The assay uses an electric field to move negatively charged DNA fragments through an agarose gel. The amount of migration reflects the level of DNA damage in the cells.
The analysis was performed under alkaline conditions, according to the method of Singh et al., on cells immediately after the treatment and 24 or 48 h postincubation. A suspension of cells was mixed with low-melting-point agarose (LMP type XI) and spread onto a microscope glass slide previously coated with standard melting point agarose (NMP type I). After 2 h of cells lysis in a buffer containing (2.5 mol/L NaCl, 100 mmol/L Na2-EDTA, 10 mmol/L TRIS, 1% Triton X-100), DNA unwinding and electrophoresis were carried out in a buffer containing (1 mmol/L Na2-EDTA, 300 mmol/L NaOH) and (29 V, 30 mA). Before analysis, the slides were stained with DAPI solution (2 μg/mL). One hundred randomly chosen cells were analyzed on each slide using a fluorescence microscope Zeiss Axio Scope A1 (Carl Zeiss, Oberkochen, Germany) with a video camera connected to the image-analysis system Lucia-Comet v. 7.60 (Laboratory Imaging, Praha, Czech Republic).

[2] = tested on: MCF-7 cells; assay: MTT cell viability assay on MCF-7 cells; type: cell-based, human; settings: for IC50: Homo sapiens, MCF7, read-out: Inhibitory concentration IC50 (reduces cell viability by 50%); for IC50 / Inhibitory concentration IC10 (reduces cell viability by 10%): MCF-7 cell line, 24 h incubation, MTT; for Concentrations giving statistically significant reduction in the number of living cells: MCF-7, 24 h incubation with flavonoid, p < 0.05 vs control; for Viable cells: MCF-7, doxorubicin 3 µmol/L after 22 h preincubation with flavonoid IC50
Protocol: as §1
The principle of the method is a measurement of the absorbance of formazan, a product of the reduction of the water-soluble tetrazolium salt (MTT) by NADPH-dependent cellular oxidoreductases (mainly succinate dehydrogenase) in living cells. Formazan is insoluble in water and precipitates as purple crystals. The amount of formazan is proportional to the number of living and metabolically active cells.
After treatment, the cells were washed with PBS and cultured in a fresh medium for 48 h. Subsequently, the medium was aspirated, and an aliquot of 50 µL of 0.05 mg/mL MTT solution was added to each microplate well for 3 h. The formazan crystals were dissolved in dimethyl sulfoxide (DMSO), and the absorbance was measured at a wavelength of λ = 580 nm. The percentage of viable cells was calculated by comparing the absorbance value of the test samples to the absorbance value of the control, taking the absorbance of the control as 100%.

[3] = tested on: HUVEC-ST cells; assay: Cytometric measurement of doxorubicin accumulation in HUVEC-ST cells; type: cell-based, human; settings: 22 h preincubation with flavonoid IC50, 1 h study period
Protocol: (§2) The aromatic rings in the hydrophobic part of doxorubicin give the drug molecule fluorescent properties (λex = 490 nm, λem = 590 nm). Thus, the flow cytometric measurement of drug fluorescence inside the cells allows for the monitoring of its transport rate through the cell membrane. The increase in the intensity of drug fluorescence inside the cells is highly correlated with its accumulation.
(§3) The DOX was added to the cell suspension to achieve a final concentration equal to the IC50 value. During one hour of incubation (temp 37 °C) with the drug, samples for cytometric measurement were taken from the cell suspension after the first 5 min and then after every 10 min. Samples were analyzed using the flow cytometer LSR® II from Becton Dickinson (San Jose, CA, USA) using an argon laser with a wavelength of λ = 488 nm. Doxorubicin fluorescence intensity was calculated per single cell.

[4] = tested on: HUVEC; set-up: method as in Liu et al. [53]; settings: 50 µmol/L, 48 h; ref Liu et al. [53]; cited from earlier work
[5] = tested on: HUVEC-ST cells; assay: Mitochondrial membrane potential (JC-1) in HUVEC-ST cells; type: cell-based, human
Protocol: as §1
The mitochondrial membrane potential was measured with the membrane-permeant JC-1 fluorescent probe. […] Thus, the measurement of the ratio of JC-1 dimer to monomer fluorescence can be used for estimating changes in mitochondrial membrane potential (ΔΨm).
The cells were then incubated in complete darkness for 30 min at 37 °C. After incubation, the cells were washed to remove the dye and suspended in fresh HBSS solution. Finally, the fluorescence intensity was measured using a Cary Eclipse spectrofluorometer (Varian, Inc.) at λex/em = 475 nm/530 nm for monomers and at λex/em = 535 nm/590 nm for dimers. Subsequently, the ratio of the fluorescence intensities at 530 nm/590 nm was calculated. The mitochondrial potential in both cell lines was measured immediately after incubation with investigated compounds. The results are expressed as a percentage of the control, considered 100%.

[6] = tested on: MCF-7 cells; assay: Cytometric measurement of doxorubicin accumulation in MCF-7 cells; type: cell-based, human; settings: 22 h preincubation with flavonoid IC50, after 20 min of drug
Protocol: as §2, §3

[7] = tested on: HUVEC-ST cells; assay: Annexin V FITC/propidium iodide double staining in HUVEC-ST cells; type: cell-based, human
Protocol: as §1
(§4) This assay is based on the principle that, in viable cells, phosphatidylserine (PS) is located in the inner membrane (side facing the cytoplasm). However, upon induction of apoptosis, PS is translocated to the outer membrane (PS also appears on the necrotic cell surface). The exposed phosphatidylserine can be detected by protein Annexin V stained with FITC dye. The addition of propidium iodide (PI) enabled necrotic cells to be distinguished. Thus, this method is convenient for counting and differentiating live cells from those undergoing apoptosis or necrosis.
(§5) The analysis was performed according to the manufacturer’s protocol on cells immediately after the treatment and 24 or 48 h postincubation. Samples were analyzed using the flow cytometer LSR® II from Becton Dickinson (San Jose, CA, USA) using an argon laser with a wavelength of λ = 488 nm.

[8] = tested on: MCF-7 cells; assay: Annexin V FITC/propidium iodide double staining in MCF-7 cells; type: cell-based, human; settings: for Viable cells: docetaxel IC50 + high concentration of flavonoid
Protocol: as §1, §4, §5

[9] = flavonoid IC50 alone 24 h, control = 100%
[10] = flavonoid alone (high concentration), 48 h after incubation
[11] = doxorubicin IC50 + flavonoid IC50 preincubation, 48 h post-incubation
[12] = flavonoid IC50 alone 24 h, 24 h after incubation
[13] = flavonoid IC50 alone 24 h, 48 h after incubation

Structure (SMILES) | DNA in the comet tail [1] [%] | IC50 [2] [µM] | Concentrations giving statistically significant reduction in the number of living cells [2] [µmol/L] | Viable cells [2] [%] | Inhibitory concentration IC10 (reduces cell viability by 10%) [2] [µM] | Enhancement of doxorubicin accumulation/influx [3] | Viable HUVECs, % of the control [4] | Mitochondrial membrane potential ΔΨm, % of control [5, 9] [%] | Amount of doxorubicin in cells relative to cells not treated with flavonoids [6] | AV+/PI− cells [7, 10] [%] | AV+/PI− cells (undergoing apoptosis) [8, 11] [%] | AV+/PI− cells (undergoing apoptosis) [8, 12] [%] | AV+/PI+ cells [8, 13] [%] | further results
O=c1cc(-c2ccccc2)oc2cc(O)c(O)c(O)c12 [baicalein, 5,6,7-Trihydroxyflavone] | 5 | 95 ± 4.8 | ≥ 10 | 10 | 9 ± 0.7 | increased doxorubicin accumulation was maintained for the whole study period | 37% ± 3% | 59 | over two times higher | 10 | 21 | ~20 | 28 | Mitochondrial membrane potential ΔΨm, % of control ([5]; doxorubicin IC50 after 22 h preincubation with flavonoid IC50): 33%; Mitochondrial membrane potential ΔΨm ([5]; doxorubicin IC50 after preincubation with flavonoid in low concentration (IC10)): increasing ΔΨm to the level of control; AV+/PI+ cells ([7]; docetaxel IC50 + flavonoid IC50, 24 h after incubation): 44%; Change in percentage of AV+/PI− or AV+/PI+ cells vs doxorubicin alone ([7]; doxorubicin IC50 + flavonoid IC50, 24 h after incubation): increased almost two-fold
O=C(O)[C@H]1O[C@@H](Oc2cc3oc(-c4ccccc4)cc(=O)c3c(O)c2O)[C@H](O)[C@@H](O)[C@@H]1O [baicalin, baicalein 7-O-β-D-glucuronide] | 3 | 250 ± 10.5 | ≥ 56 | 21 | 36 ± 3.4 | observed only during the first 30 min of the study | 61% ± 8% | 72 | over two times higher | 19 | 34 | ~20 | 25 | Viable cells ([7]; doxorubicin IC50 + lower concentration (IC10) of flavonoid, longest postincubation time (48 h)): 55%; AV+/PI+ cells [7, 10]: 30%; Viable cells ([8]; 24 h after incubation): 22%; Viable cells ([8]; 48 h after incubation): 24%
